Measured values: patent US8030315B2, “DPP-IV inhibitor including beta-amino group, preparation method thereof and pharmaceutical composition containing the same for preventing and treating diabetes or obesity” (Dong-A Pharm. Co., Ltd., priority 2007, dated 2011)

Experiments:
C57BL/6 mice = assay: Oral glucose tolerance test (OGTT); type: in vivo; settings: dose of 1 mg/kg, compared to the control group
Method: Blood was collected from caudal veins of animals in the morning on the day of the experiment and a blood glucose level was measured with an Accu-Chek Active Blood Glucose Meter (Roche Diagnostics). […] Blood collection was made at designated time points—just prior to drug administration, just prior to glucose administration, and 5, 15, 30, 60 and 90 min after glucose administration.

[1] = In vivo kinetic experiments (half-life); settings: SD, rat, blood, po, 10 mg/kg

| SMILES | blood glucose-lowering effects (C57BL/6 mice) | half-life [1] |
| --- | --- | --- |
| CCOC[C@@H]1C(=O)NCCN1C(=O)C[C@H](N)Cc1cc(F)c(F)cc1F.Cl [Example 3, (R)-4-[(R)-3-amino-4-(2,4,5-trifluorophenyl)butanoyl]-3-(ethoxymethyl)piperazin-2-one hydrochloride] | 52% | 456 min |
| N[C@@H](CC(=O)N1CCn2c(nnc2C(F)(F)F)C1)Cc1cc(F)c(F)cc1F [MK-0431, reference compound] |  | 288 min |
| CC(C)(C)OC[C@@H]1C(=O)NCCN1C(=O)C[C@H](N)Cc1cc(F)c(F)cc1F.O=C(O)C(O)C(O)C(=O)O [Example 12, (R)-4-[(R)-3-amino-4-(2,4,5-trifluorophenyl)butanoyl]-3-(t-butoxymethyl)piperazin-2-one tartrate] | 62% | 330 min |
| CC(C)(C)OC[C@@H]1C(=O)NCCN1C(=O)C[C@H](N)Cc1cc(F)c(F)cc1F.Cl [Example 1, (R)-4-[(R)-3-amino-4-(2,4,5-trifluorophenyl)butanoyl]-3-(t-butoxymethyl)piperazin-2-one hydrochloride] | 54% | 474 min |
